Laboratory results from publication PMC4725915, “Ruthenium(II) Complexes with 2-Phenylimidazo[4,5-f][1,10]phenanthroline Derivatives that Strongly Combat Cisplatin-Resistant Tumor Cells” (Scientific Reports, 2016).

Tests used:
A549R MCTSs = assay: Growth inhibition of drug-treated MCTSs (size by imaging); assay type: cell-based, human; conditions: 1.0 and 2.0 μM
Source text: Traditional research on the efficacy of cancer drugs is usually performed in two-dimensional (2-D) cell cultures, which may not be a true indicator of the in vivo effectiveness of cancer treatments. This is in part due to the absence of cell-cell or cell-extracellular matrix interactions in 2-D cell models. Therefore, the development of cell culture models that can close the gap between conventional 2-D cell experiments and animal studies is necessary to study the cytotoxicity and anti-proliferative activities of drugs. Multicellular tumor spheroids (MCTSs) are heterogeneous cellular aggregates that have properties of solid tumors, such as nutrient and oxygen gradients, hypoxic/necrotic regions, cell-cell matrix interactions, and gene expression.
MCTSs were cultured using the liquid overlay method. A549R cells in the exponential growth phase were dissociated by a trypsin/EDTA solution to gain single-cell suspensions. A number of 3000 diluted A549R cells were transferred to 1.5% agarose-coated transparent 96-well plates with 200 μL of DMEM containing 10% serum. The single cells formed MCTS aggregates approximately 400 μm in diameter after three days with 5% CO2 and 20% O2 at 37 °C. […]

A549R cells = assay: Real-time cell growth and proliferation assay (xCELLigence); assay type: cell-based, human
Description: In addition, a real-time cell growth and proliferation assay using an xCELLigence System was utilized to confirm the high toxicity of complex 4 on A549R cells. […] In contrast, A549R cells were killed by treatment with complex 4 in a concentration-dependent manner.
This experiment was performed using an xCELLigence RTCA DP system real time cell analyzer (Roche Diagnostics GmbH, Germany). In brief, 80 μL of cell culture media was added to each well of a 16-well plate (E-plate 16, Roche Diagnostics GmbH, Germany). The 16-well plates were then connected to the system and checked for suitable electrical contacts in the real time cell analyzer, and the background impedance was measured for 24 s. Meanwhile, the A549R cells were suspended in cell culture medium and adjusted to 5 × 10^4 cells/mL, and 100 μL of each cell suspension was added to each well of […]. Approximately 24 h after seeding, the A549R cells were in the logarithmic phase of growth, and a wide range of concentrations of complex 4 and cisplatin (100 μM) were added. The cells were automatically monitored every 15 min over 48 h by the xCELLigence system. Data were analyzed using RTCA software (version 1.2) that was supplied with the instrument.

Ru(phen)(bzq)(tbtfpip)(PF6) [Complex 4]
change in size of A549R MCTSs (A549R MCTSs): decreased in size over time | effect on A549R cell proliferation (xCELLigence) (A549R cells; 0.5 μM): began to die after a short delay | effect on A549R cell proliferation (xCELLigence) (A549R cells; 2.0 μM): rapidly abolished cellular proliferation
